Where two headings read alike, the source gives them in different places.
Experiments:
[1] = tested on: caveola transport pathway; assay: Uptake of CTB, transport marker of caveola pathway, into COS-1 cells (Example 7); assay type: cell-based, African green monkey; conditions: FIG. 6
[2] = human; Non-patent Document 15; cited from earlier work
[3] = rat; Non-patent Document 16; cited from earlier work
[4] = rats, intravenous injection; Non-patent Document 17; cited from earlier work
[5] = biological target: bLOX-1 (Bos taurus, UniProt P79391); assay: Plate assay: binding of oxidized LDL to recombinant bLOX-1 (Test Example 1); design: 6xHis (N); made in house; host or cells: E. coli; species or system bovine
Protocol: A LOX-1 antagonist activity of the agent for preventing arteriosclerosis obtained in the above-mentioned Example was evaluated on a LOX-1 binding inhibition rate to oxidized LDL using a recombinant LOX-1 protein obtained from E. coli.
As for the recombinant LOX-1, in cDNA of LOX-1 derived from bovine (bLOX-1) or derived from human (hLOX-1), a sequence to the C-terminal removing a transmembrane region was inserted into a pQE30 vector having a 6-histidine tag sequence (6×His) at the N-terminal (manufactured by Qiagen) so as to have a sequence aligned to a translation frame. The vector was transformed into E. coli able to be controlled by T5 promoter and the expression of each LOX-1 was induced under induction of 1 m M of isopropyl-1-thio-β-D-[…] (IPTG). After the induction of each expression at 37° C. for 3 hours, since the recombinant LOX-1 was obtained from an insoluble fraction, E. coli was lysed in a buffer containing 6 M guanidine hydrochloride and purified by affinity column chromatography using a Ni-NTA agarose column (manufactured by Qiagen) as the marker of 6×His (solvent: phosphoric acid buffer). Furthermore, each of the elution fractions containing LOX-1 was dialyzed in a 20 mM tris buffer (pH 9.0) and a 8M urea containing buffer, applied to a HiTrap Q column, an anion exchanger, (manufactured by Amersham), and eluted and purified with a linear concentration gradient of NaCl. Each of the fractions containing LOX-1 obtained above was reduced in a buffer containing excess amount of DTT (dithiothreitol), and then intramolecular S-S bonds were unwinded by a redox system using a mixture of oxidized […] low molecular thiol compounds. Each LOX-1 obtained above has a binding ability to the oxidized LDL and will be used as a LOX-1 standard for the following plate assays.
The plate assay was carried out using MaxiSorp Immuno Plate (96-well type, manufactured by NUNC). Each LOX-1 purified above was prepared with a PBS buffer so as to be 5 μg/mL, and 100 μL of the solution was applied to each well. After leaving at 4° C. overnight, each well was washed with 400 μL of a PBS buffer twice (400 μL×2) and 300 μL of a PBS buffer containing 25% BlockAce (manufactured by Dainippon Sumitomo Pharma Co., Ltd.) was applied to each well. After leaving at 4° C. overnight, each well was washed with 400 μL of a PBS buffer twice (400 μL×2), a solution of ethyl pheophorbide a was prepared with a PBS buffer containing 1% bovine serum albumin (BSA) so as to have an appropriate dilution rate, and 100 μL of the solution was applied to each well. After leaving at 4° C. overnight, each well was washed with 400 μL of a PBS buffer three times (400 μL×3), a solution of oxidized LDL was prepared with a PBS buffer so as to be 5 μg/mL, and 100 μL of the solution was applied to eachr well. After leaving at 4° C. overnight, each well was washed with 400 μL of a PBS buffer three times (400 μL×3), a horseradish peroxidase-conjugated anti-apolipoprotein B antibody (manufactured by The Binding Site) was diluted 1000 times with a PBS buffer, and 100 μL of the solution was applied to each well. After leaving at room temperature for 2 hours, each well was washed with 400 μL of a PBS buffer five times (400 μL×5), and 100 μL of a 3,3′,5,5′-tetramethylbenzidine (TMB) peroxidase-enzyme immunoassay (EIA)-substrate-kit reagent (manufactured by Bio-Rad) was applied to each well. After an appropriate reaction period, 50 μL of 2M H2SO4 was applied to each well to stop the reaction. Finally, a LOX-1 antagonist activity (an oxidized LDL binding inhibition rate to LOX-1) was determined by detection at 450 nm.

Chain of bLOX-1 (P79391 57-270 limits assumed): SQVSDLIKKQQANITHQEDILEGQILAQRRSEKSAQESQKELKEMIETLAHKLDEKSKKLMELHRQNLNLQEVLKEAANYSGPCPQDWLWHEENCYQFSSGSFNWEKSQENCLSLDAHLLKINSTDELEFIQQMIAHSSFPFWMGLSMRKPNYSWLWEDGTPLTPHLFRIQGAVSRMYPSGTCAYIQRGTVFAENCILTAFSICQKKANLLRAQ

## C=Cc1c(C)c2cc3nc(c4c5[nH]c(cc6nc(cc1[nH]2)C(C)=C6CC)c(C)c5C(=O)[C@@H]4C(=O)OC)[C@@H](CCC(=O)O)[C@@H]3C [pheophorbide a]
[1]
  inhibition of caveola transport pathway (CTB uptake): inhibits the caveola transport pathway significantly
[2]
  ingestion causing photosensitivity disease: ≥ 500 mg/day
[3]
  ingestion causing photosensitivity disease: ≥ 220 mg/kg
[4]
  accumulation to skin: low
  main accumulation target: reticuloendothelial system
[5]; concentration dependence, FIG. 2
  IC50: ~100 nM
[5]; final concentration of 16 μM, FIG. 1
  inhibition activity on binding of oxidized LDL to bLOX-1 (ranking among actives): high inhibition activities
[5]; final concentration of 16 μM, FIG. 1, control without compounds = 100
  binding rate of oxidized LDL to bLOX-1 (inhibition of binding): inhibit the binding significantly
